One assay relates to IL-1β. In words: Cytokine Release from Human PBMCs: IL-1β. It counts as cell-based. To be noted: LPS, 24 hours, Concentration 100 μM. The method, then: (§1) Human donor blood (8 mL) was collected in sodium citrate CPT tubes and centrifuged at 1,600×g for 20 minutes at room temperature. Buffy coat containing PBMCs was collected and transferred to a 50 mL conical tube containing 30 mL of RPMI-1640 medium at room temperature (supplemented with penicillin-streptomycin). PBMCs samples were centrifuged at 400×g for 10 minutes at 10° C. The pelleted PBMCs were washed twice in 10 ml of RPMI-1640 medium (supplemented with penicillin-streptomycin), then resuspended in RPMI-1640 medium (supplemented with penicillin-streptomycin, fetal bovine serum, and L-Glutamine). PBMCs were filtered through a 70 micron mesh to remove any cellular debris. […] PBMCs in a 96-well plate were rested for 30 minutes in a 37° C., 5% CO2 incubator, then subsequently treated with 10 μI of indicated compound. After 2 hours 10 μL of LPS (0111:64) 1 mg/mL was added to test wells. After 24 hours of incubation at 37° C., 5% CO2, 100 μL of cell supernatant was collected and transferred to a 96-well plate (non-tissue treated, flat bottom). The plate was centrifuged at 350×g for 5 minutes at room temperature, and then the clear supernatant transferred to a new 96-well plate (non-tissue treated, flat bottom). The remaining cells were tested for viability using CellTiter-Glo® Luminescent Cell Viability Assay (Promega). The supernatant was analyzed for TNFα, IL-6 and IL-1β (kit […] Systems), using Luminex Immunoassay Technology (MAGPIX System).

The test system of assay [1] is experimental autoimmune encephalomyelitis (EAE). In words: In Vivo EAE Model of Multiple Sclerosis. Set-up: species or system C57BL/6J mice. The method, then:
For experimental autoimmune encephalomyelitis (EAE) study, 8- to 11-week-old C57BL/6J mice were anesthetized and subcutaneously injected with […] and […]. Pertussis toxin (200 ng/mouse) was applied i.p. on days 0. Daily clinical evaluation was performed via a 5-point scale, and the clinical progression was observed over 28 days (FIG. 2A). […] At the end of the study, flow cytometry analysis was performed on the spleen (n=8 per group). […] Statistical analysis was performed with GraphPad Prism (GraphPad Software). Unpaired t test was used to assess significance between the control (Vehicle) and each treatment group. For experimental autoimmune encephalomyelitis (EAE) studies, 8- to 11-week old C57BL/6J mice were anesthetized and subcutaneously injected with […] and […]. Pertussis toxin (200 ng/mouse) was applied intraperitoneally on day 0. Daily clinical evaluation as performed using a 5-point scale and the clinical progression was observed over 28 days (FIGS. 2C and 2D).

The test system of another assay is IL-8. In words: Neutrophil Chemokine Production Assay: IL-8. It counts as cell-based. The conditions noted are these: human neutrophils, 12 h. An outline of the steps: (§2)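 Neutrophils were isolated from human blood by Histopaque-1077 separation and RBC lysis, then plated at 2.0×10^5 cells/well in RPMI complete. Cells were stimulated with LPS (10 μL of a 2 μg/mL solution) for 12 h at 37 °C. Supernatant chemokines were measured by Luminex multiplex, averaging three data points from two donors.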

The test system of a further assay is TNFα. Description: Cytokine Release from Human PBMCs: TNFα. It counts as cell-based. To be noted: LPS, 24 hours, Concentration 100 μM. The method, then: as §1
A further assay relates to MIP-1β. Description: Neutrophil Chemokine Production Assay: MIP-1β. It counts as cell-based. To be noted: human neutrophils, 12 h. The method in brief:
as §2

For a further assay, the system named is IL-6. Description: Cytokine Release from Human PBMCs: IL-6. The class given is cell-based. To be noted: LPS, 24 hours, Concentration 100 μM. The method, then:
as §1

The values below come from patent US20210299079A1, “MONOMETHYL FUMARATE-CARRIER CONJUGATES AND METHODS OF THEIR USE” (Flagship Pioneering Innovations V, Inc., priority 2018, published 2021).

Consider `CCC(=O)O` [propionate], for which, in the assay on IL-1β, the “IL1β % DMSO control” value is “+ ((+) 50% > <90% DMSO)”. Further, the “EAE score (5-point scale) compared to control (vehicle only)” value in assay [1] (Study 1, 200 mM in drinking water, 28 days) is on record as “lower EAE scores”. In addition, the “TH17 cell (CD3+)/regulatory T cells (CD3+, Foxp3+) ratio” value in assay [1] (Study 1, spleen flow cytometry at end of study, 200 mM in drinking water, vs vehicle, P<0.05) is on record as “significantly reduced”. Further, the “% IL-8 (Vehicle + LPS = 100%)” value in the assay on IL-8 (Conc. 500.0 μM) is listed as “− (− = >90% Vehicle)”; in the assay with IL-8 (Conc. 1000.0 μM), “++ (++ = <70% Vehicle)”; in the assay on IL-8 (Conc. 3000.0 μM) it was “+++ (+++ = <50% Vehicle)”. Besides, the “TNFα % of DMSO control” value in the assay on TNFα is “+ ((+) 50% > <90% DMSO)”. For the same compound, the “% MIP-1β (DMSO + LPS = 100%)” value with MIP-1β (Conc. 500.0 μM), in the assay with MIP-1β (Conc. 1000.0 μM) and in the assay with MIP-1β (Conc. 3000.0 μM) was “+++ (+++ = <50% Vehicle)” in each case. For the same compound, the “IL6 % DMSO control” value in the assay on IL-6 is “+ ((+) 50% > <90% DMSO)”.
